Measurements from patent US6153589A, “2,3-epoxy alcohols, acids and derivatives as anti retroviral chemotherapeutic agents” (The United States of America as represented by the …, priority 1992, dated 2000).
Like-named read-outs stand apart in the source and are kept apart here.

What was measured:
HIV-2 protease = test: HIV protease cleavage of nonapeptide (HPLC); type: biochemical; conditions: 0.5 μl of 10 μg/μl inhibitor in DMSO per 10 μl reaction; pH 6.5, room temperature; pentapeptide product relative to DMSO control; sampled at ca. 16 and 40 hr (time not given)
Procedure, shortened: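 Nonapeptide substrate Val-Ser-Gln-Asn-Tyr-Pro-Ile-Val-Gln-NH2 incubated with protease (ca. 100 ng) in 200 mM sodium phosphate, 1 M NaCl, 5% glycerol, 0.25% NP-40, pH 6.5, at room temperature with inhibitor added from a 10 μg/μl DMSO stock. Samples taken at ca. 16 and 40 h; RP-HPLC (206 nm) measured pentapeptide product relative to DMSO control.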

porcine Renin = target: T1, porcine Renin (Sus scrofa, UniProt A0A287APG1); test: Porcine Renin cleavage of porcine tetradecapeptide (HPLC); type: biochemical; conditions: 0.5 μl of 50 μg/μl inhibitor in DMSO in 50 μl; pH 6.00, room temperature, 70 min; relative to uninhibited control
T1 construct: purchased Sigma
Text: Renin Activity: Porcine Renin Cleavage of Porcine Tetradecapeptide
Proteolytic enzymes are ubiquitous in many living systems. Renin is an asparxyl protease found in mammals which is responsible for the regulation of blood pressure. Structural and functional similarities between Renin and retroviral proteases have been previously noted (Pearl, L. H., Taylor, W. R., (1987) Nature, 329, 351-354). Consequently, successful therapeutic inhibition of retroviral proteases depends on the ability of the inhibitor to inhibit the retroviral enzyme while having a greatly diminished effect on normally occurring enzymes like Renin. The failure to inhibit the desired enzyme selectively may have an adverse effect on normal biochemical functions. The similarity of Renin to retroviral proteases and its viral normal bodily function makes it an attractive system in which to examine inhibitory selectivity.
Renin activity was determined by a method similar to that described above for the HIV protease. A solution containing 0.37 m unit (0.5 μl of stock solution containing 0.75 m unit/μl) of porcine Renin (Sigma) was added to 5 μg of porcine angiotensinogen in 50 μl of 0.1 M citrate-phosphate buffer (pH 6.00) containing 0.25% NP-40. A DMSO solution containing the inhibitor (0.5 μl of a 50 μg/μl solution) was added and the reaction was allowed to incubate at room temperature for 70 min. The entire mixture was analyzed by HPLC chromatographic analysis was perforemd on a 4.6×250 mm Lichrosorb RP-18 column eluting with a gradient of 0-50% acetonitrile in 0.02 M KH2 Po4 (pH 4.7) over 30 min monitoring absorbance at 206 nm. Appearance of both the tetrapeptide and the decapeptide products may be monitored under these conditions. Enzyme activity is expressed as the amount of tetrapeptide produced relative to an uninhibited control, and are summarized in Table 3 below.

Rous Sarcoma Virus = conditions: in vitro; literature report; cited from earlier work
Murine Leukemia Virus = conditions: in vitro; literature report; cited from earlier work
HIV infected cells = conditions: literature report; cited from earlier work
fatty acid synthesis = conditions: literature report; cited from earlier work
[1] = literature report; cited from earlier work
HIV1 IIIb = test: microbe, parasite or virus in culture; type: cell-based; conditions: Human immunodeficiency virus 1, IIIB; for viability at 10 µg/mL: 10 ug/ml; for viability at 80.2 µg/mL: 80.2 ug/ml; for viability at 23.8 µg/mL: 23.8 ug/ml; for viability at 14 µg/mL: 14 ug/ml; for viability at 140 µg/mL: 140 ug/ml; for viability at 38 µg/mL: 38 ug/ml; for viability at 35.2 µg/mL: 35.2 ug/ml; for viability at 20.7 µg/mL: 20.7 ug/ml; for viability at 3.52 µg/mL: 3.52 ug/ml
Procedure, shortened: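 Human host cells infected with HIV1 IIIb (virus-producing H9 cells or cell-free virus) and incubated seven days with compound. Viable cells measured by XTT formazan absorbance; response expressed as % of uninfected controls against virus kill %. Some cultures redosed after 3 days.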

T1 sequence (A0A287APG1 24-407): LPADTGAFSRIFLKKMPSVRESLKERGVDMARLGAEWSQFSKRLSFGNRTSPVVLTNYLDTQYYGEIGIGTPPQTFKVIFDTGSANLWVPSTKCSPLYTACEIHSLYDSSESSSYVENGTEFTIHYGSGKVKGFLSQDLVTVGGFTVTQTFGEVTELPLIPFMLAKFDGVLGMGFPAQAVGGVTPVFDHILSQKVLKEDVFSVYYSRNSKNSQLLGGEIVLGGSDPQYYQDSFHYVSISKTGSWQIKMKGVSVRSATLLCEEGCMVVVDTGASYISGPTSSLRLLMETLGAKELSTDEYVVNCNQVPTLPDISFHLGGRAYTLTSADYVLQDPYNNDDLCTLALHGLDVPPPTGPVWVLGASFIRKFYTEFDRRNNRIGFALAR

C/C=C/C/C=C/CCC(=O)[C@H]1O[C@H]1C(N)=O [Cerulenin, 4-Oxo-2R,3S-epoxy-trans,trans-2,5-dodecadienyl amide]
Percent Control Cleavage of Nonapeptide HIV-1 Cleavage Site Fragment (HIV-2 protease): 10% | Percent control (tetrapeptide produced) (porcine Renin): 68% | antiretroviral activity against Rous Sarcoma Virus (Rous Sarcoma Virus): exhibit antiretroviral activity | antiretroviral activity against Murine Leukemia Virus (Murine Leukemia Virus): exhibit antiretroviral activity | inhibition of viral polyprotein processing (HIV infected cells): inhibit viral polyprotein processing | inhibition of fatty acid synthesis (fatty acid synthesis): potent inhibitor of fatty acid synthesis | toxicity [1]: relatively high toxicity

CCCCCCC[C@H]1O[C@H]1CO [Example 15, (2S-cis)-3-Heptyloxirane Methanol]
viability at 92 µg/mL (HIV1 IIIb; 168 h, read-out: Antiviral Effect (viable cells as % of uninfected controls), run 3, 92 ug/ml, source V (cell free virus), virus kill 35.0%): 60.8% | viability at 10 µg/mL (HIV1 IIIb; 168 h, read-out: Antiviral Effect (viable cells as % of uninfected controls), run 4, source V (cell free virus), virus kill 57.0%): 78.2% | viability at 10 µg/mL (HIV1 IIIb; 168 h, read-out: Antiviral Effect (viable cells as % of uninfected controls), run 5, source V (cell free virus), virus kill 26.0%): 58.6% | viability at 21.6 µg/mL (HIV1 IIIb; 168 h, read-out: Antiviral Effect (viable cells as % of uninfected controls), run 6*, 21.6 ug/ml, source V (cell free virus), virus kill 31.0%, culture redosed with compound after 3 days): 32% | viability at 46 µg/mL (HIV1 IIIb; H9, 168 h, read-out: Antiviral Effect (viable cells as % of uninfected controls), run 1, 46 ug/ml, source C (virus producing H9 cells), virus kill 15.0%): 58.3% | viability at 4.6 µg/mL (HIV1 IIIb; H9, 168 h, read-out: Antiviral Effect (viable cells as % of uninfected controls), run 2, 4.6 ug/ml, source C (virus producing H9 cells), virus kill 13.0%): 11.8% | Percent Control Cleavage of Nonapeptide HIV-1 Cleavage Site Fragment (HIV-2 protease): 59% | Percent control (tetrapeptide produced) (porcine Renin): 86%

CCCCCCC[C@@H]1O[C@@H]1CO [Example 16, (2R-cis)-3-Heptyloxirane Methanol]
viability at 160 µg/mL (HIV1 IIIb; 168 h, read-out: Antiviral Effect (viable cells as % of uninfected controls), run 4, 160 ug/ml, source V (cell free virus), virus kill 40.0%): 62.6% | viability at 80.2 µg/mL (HIV1 IIIb; 168 h, read-out: Antiviral Effect (viable cells as % of uninfected controls), run 5, source V (cell free virus), virus kill 60.0%): 97.3% | viability at 80.2 µg/mL (HIV1 IIIb; 168 h, read-out: Antiviral Effect (viable cells as % of uninfected controls), run 6, source V (cell free virus), virus kill 30.0%): 88.6% | viability at 23.8 µg/mL (HIV1 IIIb; 168 h, read-out: Antiviral Effect (viable cells as % of uninfected controls), run 7, source V (cell free virus), virus kill 22.0%): 35.9% | viability at 23.8 µg/mL (HIV1 IIIb; 168 h, read-out: Antiviral Effect (viable cells as % of uninfected controls), run 8*, source V (cell free virus), virus kill 28.0%, culture redosed with compound after 3 days): 39.7% | viability at 10.6 µg/mL (HIV1 IIIb; H9, 168 h, read-out: Antiviral Effect (viable cells as % of uninfected controls), run 1, 10.6 ug/ml, source C (virus producing H9 cells), virus kill 14.0%): 27.3% | viability at 80.2 µg/mL (HIV1 IIIb; H9, 168 h, read-out: Antiviral Effect (viable cells as % of uninfected controls), run 2, source C (virus producing H9 cells), virus kill 15.0%): 69.6% | viability at 80.2 µg/mL (HIV1 IIIb; H9, 168 h, read-out: Antiviral Effect (viable cells as % of uninfected controls), run 3, source C (virus producing H9 cells), virus kill 15.0%): 84.5% | Percent Control Cleavage of Nonapeptide HIV-1 Cleavage Site Fragment (HIV-2 protease): 42% | Percent control (tetrapeptide produced) (porcine Renin): 96%

CCCCCCCCC[C@H]1O[C@H]1C(N)=O [Example 23, (2R-cis)-3-Nonyloxiranecarboxy Amide]
viability at 2.8 µg/mL (HIV1 IIIb; 168 h, read-out: Antiviral Effect (viable cells as % of uninfected controls), run 7, 2.8 ug/ml, source V (cell free virus), virus kill 19.0%): 108% | viability at 7.6 µg/mL (HIV1 IIIb; 168 h, read-out: Antiviral Effect (viable cells as % of uninfected controls), run 8, 7.6 ug/ml, source V (cell free virus), virus kill 30.0%): 40.2% | viability at 3.8 µg/mL (HIV1 IIIb; 168 h, read-out: Antiviral Effect (viable cells as % of uninfected controls), run 9, 3.8 ug/ml, source V (cell free virus), virus kill 52.0%): 60.1% | viability at 14 µg/mL (HIV1 IIIb; 168 h, read-out: Antiviral Effect (viable cells as % of uninfected controls), run 10, source V (cell free virus), virus kill 52.0%): 60.1% | viability at 380 µg/mL (HIV1 IIIb; 168 h, read-out: Antiviral Effect (viable cells as % of uninfected controls), run 11, 380 ug/ml, source V (cell free virus), virus kill 20.0%): 24% | viability at 140 µg/mL (HIV1 IIIb; 168 h, read-out: Antiviral Effect (viable cells as % of uninfected controls), run 12, source V (cell free virus), virus kill 20.0%): 31% | viability at 27 µg/mL (HIV1 IIIb; 168 h, read-out: Antiviral Effect (viable cells as % of uninfected controls), run 13*, 27 ug/ml, source V (cell free virus), virus kill 22.0%, culture redosed with compound after 3 days): 79.6% | viability at 28 µg/mL (HIV1 IIIb; H9, 168 h, read-out: Antiviral Effect (viable cells as % of uninfected controls), run 1, 28 ug/ml, source C (virus producing H9 cells), virus kill 6.0%): 75.6% | viability at 76 µg/mL (HIV1 IIIb; H9, 168 h, read-out: Antiviral Effect (viable cells as % of uninfected controls), run 2, 76 ug/ml, source C (virus producing H9 cells), virus kill 17.0%): 28.5% | viability at 38 µg/mL (HIV1 IIIb; H9, 168 h, read-out: Antiviral Effect (viable cells as % of uninfected controls), run 3, source C (virus producing H9 cells), virus kill 14.0%): 35.1% | viability at 140 µg/mL (HIV1 IIIb; H9, 168 h, read-out: Antiviral Effect (viable cells as % of uninfected controls), run 4, source C (virus producing H9 cells), virus kill 14.0%): 25.1% | viability at 38 µg/mL (HIV1 IIIb; H9, 168 h, read-out: Antiviral Effect (viable cells as % of uninfected controls), run 5, source C (virus producing H9 cells), virus kill 17.0%): 17% | viability at 14 µg/mL (HIV1 IIIb; H9, 168 h, read-out: Antiviral Effect (viable cells as % of uninfected controls), run 6, source C (virus producing H9 cells), virus kill 17.0%): 16% | Percent Control Cleavage of Nonapeptide HIV-1 Cleavage Site Fragment (HIV-2 protease): 102% | Percent control (tetrapeptide produced) (porcine Renin): 88%

CCCCCCCCC[C@@H]1O[C@@H]1C(N)=O [Example 24, (2S-cis)-3-Nonyloxiranecarboxy Amide]
viability at 35.2 µg/mL (HIV1 IIIb; 168 h, read-out: Antiviral Effect (viable cells as % of uninfected controls), run 5, source V (cell free virus), virus kill 54.6%): 73% | viability at 20.7 µg/mL (HIV1 IIIb; 168 h, read-out: Antiviral Effect (viable cells as % of uninfected controls), run 6, source V (cell free virus), virus kill 54.6%): 71.4% | viability at 3.52 µg/mL (HIV1 IIIb; 168 h, read-out: Antiviral Effect (viable cells as % of uninfected controls), run 7, source V (cell free virus), virus kill 26.0%): 28.1% | viability at 20.7 µg/mL (HIV1 IIIb; 168 h, read-out: Antiviral Effect (viable cells as % of uninfected controls), run 8, source V (cell free virus), virus kill 26.0%): 34% | viability at 1.34 µg/mL (HIV1 IIIb; 168 h, read-out: Antiviral Effect (viable cells as % of uninfected controls), run 9, 1.34 ug/ml, source V (cell free virus), virus kill 20.0%): 41.7% | viability at 0.135 µg/mL (HIV1 IIIb; 168 h, read-out: Antiviral Effect (viable cells as % of uninfected controls), run 10*, 0.135 ug/ml, source V (cell free virus), virus kill 23.0%, culture redosed with compound after 3 days): 114% | viability at 35.2 µg/mL (HIV1 IIIb; H9, 168 h, read-out: Antiviral Effect (viable cells as % of uninfected controls), run 1, source C (virus producing H9 cells), virus kill 16.0%): 73% | viability at 20.7 µg/mL (HIV1 IIIb; H9, 168 h, read-out: Antiviral Effect (viable cells as % of uninfected controls), run 2, source C (virus producing H9 cells), virus kill 16.0%): 67.4% | viability at 3.52 µg/mL (HIV1 IIIb; H9, 168 h, read-out: Antiviral Effect (viable cells as % of uninfected controls), run 3, source C (virus producing H9 cells), virus kill 9.0%): 11.3% | viability at 2.07 µg/mL (HIV1 IIIb; H9, 168 h, read-out: Antiviral Effect (viable cells as % of uninfected controls), run 4, 2.07 ug/ml, source C (virus producing H9 cells), virus kill 9.0%): 10.5% | Percent Control Cleavage of Nonapeptide HIV-1 Cleavage Site Fragment (HIV-2 protease): 113% | Percent control (tetrapeptide produced) (porcine Renin): 106%
